# Measured values from patent publication US20230279025A1, “KRAS G12D INHIBITORS” (Mirati Therapeutics, Inc., priority 2020, published 2023).
# Biological target: KRas G12D (Homo sapiens (Human), UniProt P01116, G12D)
# Test: KRas G12D Binding Assay (TR-FRET displacement of Cy5 labelled tracer)
# Conditions: GDP-loaded KRAS G12D (amino acids 1:169), 60 minute incubation at 22° C.
# Protocol: After a 60 minute incubation at 22° C., the reaction was measured using a PerkinElmer EnVision multimode plate reader via TR-FRET dual wavelength detection, and the percent of control (POC) calculated using a ratiometric emission factor. […] The POC values were fit to a 4-parameter logistic curve and the IC50 value was determined as the concentration where the curve crosses 50 POC.
# ND stands for “not determined.”
# Sequence of KRas G12D (P01116 other isoform, or with tags, fused parts or gaps G12D): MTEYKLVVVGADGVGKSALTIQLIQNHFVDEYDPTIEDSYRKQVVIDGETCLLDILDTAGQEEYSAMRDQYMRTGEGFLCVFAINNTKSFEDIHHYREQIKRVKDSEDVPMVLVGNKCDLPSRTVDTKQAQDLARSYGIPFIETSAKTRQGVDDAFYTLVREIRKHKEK
row,SMILES,IC50
1,"Fc1c(-c2cccc3cccc(Cl)c23)ncc2c(N3C[C@H]4CC[C@@H](C3)N4)nc(OC[C@H]3CCCO3)nc12 [Example 137, 4-((1R,5S)-3,8-diazabicyclo[3.2.1]octan-3-yl)-7-(8-chloronaphthalen-1-yl)-8-fluoro-2-(((R)-tetrahydrofuran-2-yl)methoxy)pyrido[4,3-d]pyrimidine]",2630 nM
2,"Fc1c(-c2cccc(Cl)c2Cl)ncc2c(N3C[C@H]4CC[C@@H](C3)N4)nc(OCC34CCCN3CCC4)nc12 [Example 277, 4-((1R,5S)-3,8-diazabicyclo[3.2.1]octan-3-yl)-7-(2,3-dichlorophenyl)-8-fluoro-2-((hexahydro-1H-pyrrolizin-7a-yl)methoxy)pyrido[4,3-d]pyrimidine]",35.2 nM
3,"Oc1ccc(C(F)(F)F)c(-c2ncc3c(N4C[C@H]5CC[C@@H](C4)N5)nc(OCC45CCCN4CCC5)nc3c2F)c1 [Example 373, 3-(4-((1R,5S)-3,8-diazabicyclo[3.2.1]octan-3-yl)-8-fluoro-2-((tetrahydro-1H-pyrrolizin-7a(5H)-yl)methoxy)pyrido[4,3-d]pyrimidin-7-yl)-4-(trifluoromethyl)phenol]",1.6 nM
4,"COc1ccccc1-c1ncc2c(N3C[C@H]4CC[C@@H](C3)N4)nc(OCC34CCCN3CCC4)nc2c1F [Example 273, 4-((1R,5S)-3,8-diazabicyclo[3.2.1]octan-3-yl)-8-fluoro-2-((hexahydro-1H-pyrrolizin-7a-yl)methoxy)-7-(2-methoxyphenyl)pyrido[4,3-d]pyrimidine]",1340 nM
5,"FCCc1cccc2cccc(-c3ncc4c(N5C[C@H]6CC[C@@H](C5)N6)nc(OCC56CCCN5CCC6)nc4c3F)c12 [Example 248, 4-((1R,5S)-3,8-diazabicyclo[3.2.1]octan-3-yl)-8-fluoro-7-(8-(2-fluoroethyl)naphthalen-1-yl)-2-((tetrahydro-1H-pyrrolizin-7a(5H)-yl)methoxy)pyrido[4,3-d]pyrimidine]",3.2 nM
6,"N=C(N)NCCCOc1nc(N2CC3CCC(C2)N3)c2cnc(-c3cccc4cccc(Cl)c34)c(F)c2n1 [Example 177, 1-[3-[7-(8-chloro-1-naphthyl)-4-(3,8-diazabicyclo[3.2.1]octan-3-yl)-8-fluoro-pyrido[4,3-d]pyrimidin-2-yl]oxypropyl]guanidine]",187 nM
7,"Cc1cccc2cccc(-c3ncc4c(N5C[C@H]6CC[C@@H](C5)N6)nc(OCC56CCCN5CCC6)nc4c3F)c12 [Example 334, 4-((1R,5S)-3,8-diazabicyclo[3.2.1]octan-3-yl)-8-fluoro-7-(8-methylnaphthalen-1-yl)-2-((tetrahydro-1H-pyrrolizin-7a(5H)-yl)methoxy)pyrido[4,3-d]pyrimidine]",10 nM
8,"Fc1c(-c2cccc(Cl)c2C2CC2)ncc2c(N3C[C@H]4CC[C@@H](C3)N4)nc(OCC34CCCN3CCC4)nc12 [Example 322, 4-((1R,5S)-3,8-diazabicyclo[3.2.1]octan-3-yl)-7-(3-chloro-2-cyclopropylphenyl)-8-fluoro-2-((tetrahydro-1H-pyrrolizin-7a(5H)-yl)methoxy)pyrido[4,3-d]pyrimidine]",4.9 nM
9,"CC(C)(C)[Si](C)(C)OCC1CCC2(COc3nc(N4C[C@H]5CC[C@@H](C4)N5)c4cnc(-c5cccc6cccc(Cl)c56)c(F)c4n3)CCCN12 (stereo partly drawn) [Example 64, 4-((1R,5S)-3,8-diazabicyclo[3.2.1]octan-3-yl)-2-((3-(((tert-butyldimethylsilyl)oxy)methyl)tetrahydro-1H-pyrrolizin-7a(5H)-yl)methoxy)-7-(8-chloronaphthalen-1-yl)-8-fluoropyrido[4,3-d]pyrimidine]",3.3 nM
10,"Fc1c(-c2cccc3c2CC2CC32)ncc2c(N3CC4CCC(C3)N4)nc(OC[C@@]34CCCN3C[C@H](F)C4)nc12 (stereo partly drawn) [Example 438, 4-(3,8-diazabicyclo[3.2.1]octan-3-yl)-8-fluoro-2-(((2R,7aS)-2-fluorotetrahydro-1H-pyrrolizin-7a(5H)-yl)methoxy)-7-(1,1a,6,6a-tetrahydrocyclopropa[a]inden-5-yl)pyrido[4,3-d]pyrimidine]",20.1 nM
11,"Fc1c(-c2cccc3cccc(C4CC4)c23)ncc2c(N3C[C@H]4CC[C@@H](C3)N4)nc(OCC34CCCN3CCC4)nc12 [Example 335, 4-((1R,5S)-3,8-diazabicyclo[3.2.1]octan-3-yl)-7-(8-cyclopropylnaphthalen-1-yl)-8-fluoro-2-((tetrahydro-1H-pyrrolizin-7a(5H)-yl)methoxy)pyrido[4,3-d]pyrimidine]",25.8 nM
12,"CC(C)c1ccccc1-c1ncc2c(N3C[C@H]4CC[C@@H](C3)N4)nc(OCC34CCCN3CCC4)nc2c1F [Example 309, 4-((1R,5S)-3,8-diazabicyclo[3.2.1]octan-3-yl)-8-fluoro-7-(2-isopropylphenyl)-2-((tetrahydro-1H-pyrrolizin-7a(5H)-yl)methoxy)pyrido[4,3-d]pyrimidine]",205 nM
13,"C#Cc1cccc2cncc(-c3ncc4c(N5C[C@H]6CC[C@@H](C5)N6)nc(OC[C@]56CCCN5C[C@@H](F)C6)nc4c3F)c12 [Example 204, 4-((1R,5S)-3,8-diazabicyclo[3.2.1]octan-3-yl)-7-(5-ethynylisoquinolin-4-yl)-8-fluoro-2-(((2S,7aR)-2-fluorotetrahydro-1H-pyrrolizin-7a(5H)-yl)methoxy)pyrido[4,3-d]pyrimidine]",4.4 nM
14,"Fc1ccc2cccc(-c3ncc4c(N5C[C@H]6CC[C@@H](C5)N6)nc(OC[C@@]56CCCN5C[C@H](F)C6)nc4c3F)c2c1F [Example 430, 4-((1R,5S)-3,8-diazabicyclo[3.2.1]octan-3-yl)-7-(7,8-difluoronaphthalen-1-yl)-8-fluoro-2-(((2R,7aS)-2-fluorotetrahydro-1H-pyrrolizin-7a(5H)-yl)methoxy)pyrido[4,3-d]pyrimidine]",1 nM
15,"Oc1cc(-c2ncc3c(N4CC5CCC(C4)N5)nc(OCCN4C[C@@H]5C[C@H]4CO5)nc3c2F)c2ccccc2c1 [Example 461, 4-(2-(2-((1S,4S)-2-oxa-5-azabicyclo[2.2.1]heptan-5-yl)ethoxy)-4-((1R,5S)-3,8-diazabicyclo[3.2.1]octan-3-yl)-8-fluoropyrido[4,3-d]pyrimidin-7-yl)naphthalen-2-ol]",0.062 nM
16,"Fc1c(-c2ccccc2C2CC2)ncc2c(N3C[C@H]4CC[C@@H](C3)N4)nc(OC[C@@]34CCCN3C[C@H](F)C4)nc12 [Example 448, 4-((1R,5S)-3,8-diazabicyclo[3.2.1]octan-3-yl)-7-(2-cyclopropylphenyl)-8-fluoro-2-(((2R,7aS)-2-fluorohexahydro-1H-pyrrolizin-7a-yl)methoxy)pyrido[4,3-d]pyrimidine]",130 nM
17,"Cc1ccc2sc(N)nc2c1-c1ncc2c(N3C[C@H]4CC[C@@H](C3)N4)nc(OCC34CCCN3CCC4)nc2c1F [Example 458, 4-(4-((1R,5S)-3,8-diazabicyclo[3.2.1]octan-3-yl)-8-fluoro-2-((hexahydro-1H-pyrrolizin-7a-yl)methoxy)pyrido[4,3-d]pyrimidin-7-yl)-5-methylbenzo[d]thiazol-2-amine]",143 nM
18,"Nc1nc(N2CC3CCC(C2)N3)c2cnc(-c3cc(O)cc4ccccc34)c(F)c2n1 [Example 182, 4-[2-amino-4-(3,8-diazabicyclo[3.2.1]octan-3-yl)-8-fluoro-pyrido[4,3-d]pyrimidin-7-yl]naphthalen-2-ol]",269 nM
19,"CN1CCC[C@H]1COc1nc(N2C[C@H]3CC[C@@H](C2)N3)c2cnc(-c3cc(O)cc4ccccc34)c(Cl)c2n1 [Example 191, 4-(4-((1R,5S)-3,8-diazabicyclo[3.2.1]octan-3-yl)-8-chloro-2-(((S)-1-methylpyrrolidin-2-yl)methoxy)pyrido[4,3-d]pyrimidin-7-yl)naphthalen-2-ol]",69.1 nM
20,"O=Cc1cc(CCOc2nc(N3C[C@H]4CC[C@@H](C3)N4)c3cnc(-c4cccc5cccc(Cl)c45)c(F)c3n2)ccc1O [Example 62, 5-(2-((4-((1R,5S)-3,8-diazabicyclo[3.2.1]octan-3-yl)-7-(8-chloronaphthalen-1-yl)-8-fluoropyrido[4,3-d]pyrimidin-2-yl)oxy)ethyl)-2-hydroxybenzaldehyde]",8410 nM
21,"CO[C@H]1CN[C@H](COc2nc(N3C[C@H]4CC[C@@H](C3)N4)c3cnc(-c4cccc5cccc(Cl)c45)c(F)c3n2)C1 [Example 351, 4-((1R,5S)-3,8-diazabicyclo[3.2.1]octan-3-yl)-7-(8-chloronaphthalen-1-yl)-8-fluoro-2-(((2S,4R)-4-methoxypyrrolidin-2-yl)methoxy)pyrido[4,3-d]pyrimidine]",94.8 nM
22,"CN1CCC[C@H]1COc1nc(N2C[C@H]3CC[C@@H](C2)N3)c2cnc(-c3cccc4cccc(C#CCO)c34)c(F)c2n1 [Example 194, 3-(8-(4-((1R,5S)-3,8-diazabicyclo[3.2.1]octan-3-yl)-8-fluoro-2-(((S)-1-methylpyrrolidin-2-yl)methoxy)pyrido[4,3-d]pyrimidin-7-yl)naphthalen-1-yl)prop-2-yn-1-ol]",151 nM
23,"COc1nc(N2C[C@H]3CC[C@@H](C2)N3)c2cnc(-c3cc(O)cc4cccc(Cl)c34)c(F)c2n1 [Example 360, 4-(4-((1R,5S)-3,8-diazabicyclo[3.2.1]octan-3-yl)-8-fluoro-2-methoxypyrido[4,3-d]pyrimidin-7-yl)-5-chloronaphthalen-2-ol]",50.8 nM
24,"Cn1nccc1CCOc1nc(N2C[C@H]3CC[C@@H](C2)N3)c2cnc(-c3cccc4cccc(Cl)c34)c(F)c2n1 [Example 144, 4-((1R,5S)-3,8-diazabicyclo[3.2.1]octan-3-yl)-7-(8-chloronaphthalen-1-yl)-8-fluoro-2-(2-(1-methyl-1H-pyrazol-5-yl)ethoxy)pyrido[4,3-d]pyrimidine]",1700 nM
25,"Fc1c(-c2cccc3cccc(OC(F)(F)F)c23)ncc2c(N3C[C@H]4CC[C@@H](C3)N4)nc(OCC34CCCN3CCC4)nc12 [Example 345, 4-((1R,5S)-3,8-diazabicyclo[3.2.1]octan-3-yl)-8-fluoro-2-((tetrahydro-1H-pyrrolizin-7a(5H)-yl)methoxy)-7-(8-(trifluoromethoxy)naphthalen-1-yl)pyrido[4,3-d]pyrimidine]",10.6 nM
